Experimental data published in patent US6071884A, “Pharmaceutical compositions and therapeutic methods” (Kirin Beer Kabushiki Kaisha, priority 1992, dated 2000).

How the values were obtained:
blood platelets [1] = experiment: Thrombocytopenia-inhibiting effect in X-ray-irradiated mice; assay type: in vivo, mouse (BDF1); details: 10 days after 5 Gy X-ray; 0.1 mg/kg i.v. within 2 h; mean ± SD; vehicle per series 10.3, 6.8, 6.7; non-treatment 68.2, 96.9, 73.0
Experimental: Pharmacological Test 5: Thromboclytopenia-Inhibiting Effect
The thrombocytopenia-inhibiting effect of each sample upon an X-ray-irradiated mouser which is one of models with a decreased number of blood platelets was examined.
An experiment was carried out by using 6 week old female BDF1 mice purchased from Japan SLC Co., Ltd., with 6 mice made one group.
5 Gy of X ray was irradiated to the entire body of the mice by a Hitachi X-ray irradiator CMBR-1520R). Within 2 hours after the irradiation, each sample was administered to the caudal vein of the mice at an amount of 0.1 mg/kg.
(§1) After 10 days, blood was collected from the fundus vein of the mice, and the number of blood platelets was measured by a sequential multi-channel hemocytometer E-2500/cs (Toa Iyo Denshi Kabushiki Kaisha). The number of blood platelets of the non-treated group, that of the medium-administered group, and that of the sample-administered group are shown in Table 5.

[2] = Life-span-increasing effect on irradiation of a lethal dose of radiation; assay type: in vivo, mouse (BDF1); details: 10 mice/group, 9 Gy X-ray, 0.1 mg/kg i.v. days 0, 4, 8
Experimental: Pharmacological Test 4: Life-Span-Increasing Effect on Irradiation of a Lethal Dose of Radiation
An experiment was carried out by using 6 week old female BDF1 mice purchased from Japan SLC Co., Ltd., with 10 mice made one group.
The entire bodies of the entire body of the mice were irradiated with 9 Gy of X-rays by using a Hitachi X-ray irradiator (MBR-1520R), and the day on which the X-ray was irradiated was referred to as "day 0".

[3] = system: marrow cells (mononuclear cell fraction); experiment: Proliferation-stimulating effect on marrow cell of mouse (3H-TdR uptake); assay type: cell-based, mouse (BALB/c); details: percentage of control, 72 h; for activity at 0.1 µg/mL: 10^-1 μg/ml; for activity at 0.01 µg/mL: 10^-2 μg/ml; for activity at 0.001 µg/mL: 10^-3 μg/ml; for activity at 1 µg/mL: 10^0 μg/ml
Experimental: Pharmacological Test 1: Proliferation-Stimulating Effect on Marrow Cell of Mouse
Marrow cells were prepared from the thigh bone of a 7 week old female BALB/c mouse purchased from Japan SLC Co., Ltd., and a mononuclear cell fraction (MNF) obtained by fractionation using a lympholyte-M (Cedar Lane, Ontario, Canada) was used in the following experiment.
The concentration of the MNF was adjusted to 1.5×10^6 cells/ml by using 10% FCS RPMI 1640 (Nissui Pharmaceutical Co., Ltd., Tokyo, Japan) as a culture medium. 10 μl/well of a sample with a predetermined concentration and 100 μl/well of the above-prepared MNF were placed on a round-bottomed 96 well plate, and incubated under the conditions of 37° C. and 5% CO2 for 72 hours. Thereafter, 0.5 μCi/well of ^3 H-thymidine (^3 H-TDR) was added. After 8 hour incubation, the cells were harvested, and the amount of the 3H-TdR taken in the nuclei was measured by a liquid scintillation counter.

blood platelets [4] = experiment: Blood-platelet-increasing effect upon normal mouse; assay type: in vivo, mouse (BDF1); details: normal mice; 6 days after 0.1 mg/kg i.v.; mean ± SD; vehicle per series 58.2, 63.0, 71.1
Experimental: Pharmacological Test 6: Blood-Platelet-Increasing Effect upon Mouse
An experiment was carried out by using 6 week old female BDF1 mice purchased from Japan SLC Co., Ltd., with 5 mice made one group.
as §1, with “Each sample was administered to the caudal vein of the mice at a dose of 0.1 mg/kg. After” for “After”, “6” for “10”, “vehicle-administered” for “non-treated group, that of the medium-administered”, “6.” for “5.”

[5] = day 10, controls per series 10, 10, 10, 10, 10, 8
[6] = day 15, controls per series 8, 9, 5, 5, 7, 1
[7] = day 20, controls per series 4, 5, 1, 2, 3, 0
[8] = day 25, controls per series 3, 3, 0, 0, 2, 0
[9] = day 30, controls per series 1, 1, 0, 0, 0, 0

SMILES | Number of Blood Platelets (blood platelets [1]) | Number of Surviving Mice [2, 5] | Number of Surviving Mice [2, 6] | Number of Surviving Mice [2, 7] | Number of Surviving Mice [2, 8] | Number of Surviving Mice [2, 9] | Number of Surviving Mice ([2]; day 35, all controls 0) | Number of Surviving Mice ([2]; day 40, all controls 0) | activity at 0.1 µg/mL [3] | activity at 0.01 µg/mL [3] | activity at 0.001 µg/mL [3] | Number of Blood Platelets (blood platelets [4]) | activity at 1 µg/mL [3]
CCCCCCCCCCCCCCCCCC(=O)N[C@@H](CO[C@H]1O[C@H](CO)[C@H](O)[C@H](O)[C@H]1O)[C@H](O)CCCCCCCCCCCCCCC [Compound 4, (2S,3R)-1-(α-D-galactopyranosyloxy)-2-octadecanoylamino-3-octadecanol] | 14.3 ± 4.7 × 10^4 /μl | 10 mice | 10 mice | 8 mice | 7 mice | 5 mice | 5 mice | 5 mice | 297% | 75% | 151% | 83.1 ± 6.5 × 10^4 /μl | 
CCCCCCCCCCCCCCCCCCCCCC(=O)N[C@@H](CO[C@H]1O[C@H](CO)[C@H](O)[C@H](O)[C@H]1O)[C@H](O)CCCCCCCCCCCCCCC [Compound 2, (2S,3R)-2-docosanoylamino-1-(α-D-galactopyranosyloxy)-3-octadecanol] | 21.5 ± 5.4 × 10^4 /μl | 10 mice | 10 mice | 9 mice | 9 mice | 9 mice | 9 mice | 8 mice | 295% | 92% | 123% | 96.3 ± 7.3 × 10^4 /μl | 915%
CCCCCCCC/C=C\CCCCCCCC(=O)N[C@@H](CO[C@H]1O[C@H](CO)[C@H](O)[C@H](O)[C@H]1O)[C@H](O)CCCCCCCCCCCCCCC [Compound 29, (2S,3R)-1-(α-D-galactopyranosyloxy)-2-oleoylamino-3-octadecanol] | 18.1 ± 5.0 × 10^4 /μl | 10 mice | 9 mice | 8 mice | 8 mice | 8 mice | 8 mice | 8 mice | 382% | 187% | 97% | 86.3 ± 3.1 × 10^4 /μl | 865%
CCCCCCCCCCCCCCCCCCCCCCCC[C@@H](O)C(=O)N[C@@H](CO[C@H]1O[C@H](CO)[C@H](O)[C@H](O)[C@H]1O)[C@H](O)[C@H](O)CCCCCCCCCCCCCCC [Compound 26, (2S,3S,4R)-1-(α-D-galactopyranosyloxy)-2-[(R)-2-hydroxyhexacosanoylamino]-3,4-nonadecanediol] | 19.8 ± 4.3 × 10^4 /μl | 10 mice | 9 mice | 9 mice | 8 mice | 8 mice | 8 mice | 8 mice | 271% | 183% | 156% | 113.7 ± 7.1 × 10^4 /μl | 
CCCCCCCCCCCCCCCCCCCCCCCC(=O)N[C@@H](CO[C@H]1O[C@H](CO)[C@H](O)[C@H](O)[C@H]1O)[C@H](O)CCCCCCCCCCCCCCC [Compound 1, (2S,3R)-1-(α-D-galactopyranosyloxy)-2-tetracosanoylamino-3-octadecanol] | 25.4 ± 6.8 × 10^4 /μl | 10 mice | 10 mice | 10 mice | 9 mice | 9 mice | 9 mice | 9 mice | 465% | 263% | 134% | 112.2 ± 6.5 × 10^4 /μl | 
